Like-named read-outs stand apart in the source and are kept apart here.
Experiments:
[1] = Photophysical properties, pKa and pH profiles of coumarin probes; assay type: physicochemical; details: 150 μM solutions, pH 3-10 buffers
Method: Fluorescence emission was recorded for 150 μM solutions, using a TECAN Safire Microplate Reader and a plastic transparent-bottomed 384-well plate (Greiner). pH 3-6 buffers were prepared by mixing different ratios of 0.1M acetic acid and 0.1M sodium acetate-trihydrate solutions. pH 7-10 buffers were prepared by mixing different ratios of 0.1M Na2HPO4 and either 0.1M HCl (for pH 7-9 buffers) or 0.1M NaOH (for pH 10 buffer). Final pH adjustments in all buffer solutions were made by adding small amount of 1M HCl or 1M NaOH.

W37VLplA [2] = target: T1, W37VLplA (Escherichia coli, UniProt P32099, W38V); assay: In vitro coumarin ligation onto LAP2 (HPLC); assay type: biochemical, E. coli; details: 500 μM coumarin probe, 2 μM W37VLplA, 55-minute reaction
Method: Reactions were assembled as follows: 2 μM LplA enzyme, 150 μM LAP2 synthetic peptide (sequence: […]; see Puthenveetil et al., J. Am. Chem. Soc. 2009, 131 16430-16438), 500 μM 7-aminocoumarin 6 probe, 5 mM ATP, and 5 mM Mg(OAc)2 in 25 mM Na2HPO4 pH 7.2. The reaction mixture was incubated at 30° C. for 2 hours and quenched with EDTA (final concentration 100 mM). The mixture was analyzed on a Varian Prostar HPLC using a reverse-phase C18 Microsorb-MV 100 column (250×4.6 mm). Chromatograms were recorded at 210 nm. We used a 10-minute gradient of 30-60% acetonitrile in water with 0.1% trifluoroacetic acid under 1 mL/minute flow rate.
2 μM ^W37VLplA and 500 μM coumarin probe were used in one case. Aliquots from the reaction were collected and quenched with EDTA over 55 minutes. For the other case, 1 μM ^W37VLplA and 100 μM coumarin probe were used, and aliquots were collected and quenched over 70 minutes. After HPLC analysis, percent product conversions were calculated by dividing the product peak area by the sum of (product+starting material) peak areas.

[3] = cited from earlier work
W37VLplA [4] = target: T1, W37VLplA; details: previously determined, cited from earlier work
W37TLplA = target: T2, W37TLplA (Escherichia coli, UniProt P32099, W38T); assay: UPLC screening of LplA single mutants for Pacific Blue ligation; assay type: biochemical, E. coli; details: after 12 hours, 500 μM probe
T2 construct: His6; made in house; host or cells: E. coli (bacterial lysate, not purified)
Method: In vitro ligation reactions were assembled as described in the main text with the following modifications. 5 μL bacterial lysate containing LplA was used in place of purified enzyme. Total reaction volume was 25 μL. Instead of LAP peptide, 150 μM purified E2p protein (see Uttamapinant, et al., 2010) was used. Reactions proceeded overnight at 30° C. with 500 μM probe. Ultra Performance Liquid Chromatography (UPLC) was used to detect any product formation. All products were confirmed by in-line mass spectrometry.

[5] = system: LAP-LDL receptor on HEK cells; assay: Comparison of Diels-Alder cycloaddition, CuAAC and strain-promoted cycloaddition for cell surface fluorescence labeling; assay type: cell-based, human; details: 3 min staining after TCO2 ligation
From the text: (A) HEK cells expressing LAP-LDL receptor and a nuclear cyan fluorescent protein transfection marker (shown in cyan, overlaid with DIC) were labeled in two steps, using three methodologies, as indicated by the scheme: Diels-Alder cycloaddition (left), CuAAC (middle), and strain-promoted cycloaddition (right). Fernandez-Suarez et al., Nature Biotechnology 2007, 25, 1483-1487. For the latter two, LAP was first derivatized with 8-azidooctanoic acid under conditions known to give quantitative yield. DIBO is dibenzylcyclooctyne. In all three cases, the second step was performed for 3 min., using the indicated Alexa 647 conjugates at the three indicated concentrations. Cells were imaged live after brief rinsing. Specific fluorescence staining with 1 μM DIBO-Alexa 647 was detectable (shown with enhanced contrast in inset). (B) Comparing cell viability after cell surface fluorescence labeling. Chinese hamster ovary cells expressing LAP-LDL receptor were labeled using Diels-Alder cycloaddition or CuAAC under the indicated conditions. Cell viability was then measured in triplicate, with untransfected and untreated cells defined as 100% viable. […]
These were previously determined, by subsequent lipoic acid pulse labeling, to give almost quantitative yield of 8-azidooctanoic acid ligation. […]

Trp37→Gly LplA = Trp37→Gly LplA (Escherichia coli, UniProt P32099, W38G); details: 30 min reaction, 500 μM probe; normalized to TCO2/Trp37→Val
Method: (§1) LplA protein was purified as previously described2 and stored at −80° C. in 20 mM Tris-HCl, pH 7.5 supplementated with 10% v/v glycerol. Reactions were quenched with 30 mM EDTA (final concentration) and resolved by HPLC (Varian ProStar) on a C-18 column using a linear gradient of 25-60% acetonitrile in H2O (with 0.1% v/v trifluoroacetic acid) over 14 minutes. Species were detected at 210 nm absorbance. Peaks corresponding to LAP and its trans-cyclooctene adducts were confirmed by ESI mass spectrometry. The extent of conversion was calculated from ratios of peak areas, neglecting minor extinction coefficient changes to LAP due to trans-cyclooctene ligation.
(§2) The relative abilities of wild-type and mutant ligases to ligate TCO1-3 onto LplA acceptor peptide (LAP) were measured by an HPLC assay after 30 min. reaction time. […] Errors, ±1 s. d.

Trp37→Ile LplA = Trp37→Ile LplA (Escherichia coli, UniProt P32099, W38I); details: 30 min reaction, 500 μM probe; normalized to TCO2/Trp37→Val
Method: as §1, §2

[6] = target: Trp37→Val LplA (W37VLplA) (Escherichia coli, UniProt P32099, W38V); details: 30 min reaction, 500 μM probe; normalized to TCO2/Trp37→Val
Method: as §1, §2

[7] = Photophysical properties of phycoerythrin and AlexaFluor 568; assay type: physicochemical

T1 sequence (P32099 2-338 W38V): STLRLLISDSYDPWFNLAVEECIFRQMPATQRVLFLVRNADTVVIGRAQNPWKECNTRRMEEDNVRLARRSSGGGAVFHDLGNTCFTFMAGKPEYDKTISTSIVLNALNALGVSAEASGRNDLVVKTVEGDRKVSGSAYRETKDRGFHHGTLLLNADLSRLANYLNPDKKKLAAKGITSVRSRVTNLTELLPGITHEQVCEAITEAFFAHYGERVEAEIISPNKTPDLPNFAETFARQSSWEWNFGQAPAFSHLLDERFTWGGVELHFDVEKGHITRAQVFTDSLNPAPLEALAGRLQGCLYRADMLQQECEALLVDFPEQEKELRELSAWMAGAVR
Chain of Trp37→Val LplA (W37VLplA) (P32099 2-338 W38V): as above
Chain of Trp37→Ile LplA (P32099 2-338 W38I): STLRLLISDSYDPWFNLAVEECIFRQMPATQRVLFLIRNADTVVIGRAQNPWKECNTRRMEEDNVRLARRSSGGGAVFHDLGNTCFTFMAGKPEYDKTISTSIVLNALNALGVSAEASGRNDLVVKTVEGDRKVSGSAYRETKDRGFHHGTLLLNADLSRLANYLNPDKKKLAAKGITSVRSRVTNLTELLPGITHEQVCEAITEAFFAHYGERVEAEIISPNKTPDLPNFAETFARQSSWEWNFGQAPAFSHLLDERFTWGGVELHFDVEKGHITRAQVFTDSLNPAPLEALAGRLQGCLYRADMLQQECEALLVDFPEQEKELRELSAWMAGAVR
Chain of Trp37→Gly LplA (P32099 2-338 W38G): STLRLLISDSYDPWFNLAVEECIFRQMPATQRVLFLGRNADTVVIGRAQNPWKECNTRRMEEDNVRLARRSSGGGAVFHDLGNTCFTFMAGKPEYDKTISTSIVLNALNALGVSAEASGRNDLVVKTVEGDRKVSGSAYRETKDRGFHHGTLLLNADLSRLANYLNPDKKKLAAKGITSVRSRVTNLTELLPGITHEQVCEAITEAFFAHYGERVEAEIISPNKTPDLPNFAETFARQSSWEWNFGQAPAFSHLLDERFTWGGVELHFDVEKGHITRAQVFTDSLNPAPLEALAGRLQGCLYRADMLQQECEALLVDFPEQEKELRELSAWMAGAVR
T2 sequence (P32099 2-338 W38T): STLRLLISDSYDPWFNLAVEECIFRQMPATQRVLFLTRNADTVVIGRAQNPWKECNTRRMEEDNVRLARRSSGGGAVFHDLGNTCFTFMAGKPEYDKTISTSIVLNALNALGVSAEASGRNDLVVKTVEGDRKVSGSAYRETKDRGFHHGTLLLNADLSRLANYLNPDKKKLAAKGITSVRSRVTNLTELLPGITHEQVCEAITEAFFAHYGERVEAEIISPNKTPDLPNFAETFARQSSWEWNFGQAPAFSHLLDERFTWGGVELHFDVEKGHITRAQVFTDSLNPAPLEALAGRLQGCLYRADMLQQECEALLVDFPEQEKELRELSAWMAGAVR

O=C(O)CCCCNC(=O)c1cc2ccc(O)cc2oc1=O [7-hydroxycoumarin 2]
pH dependence of fluorescence [1]: drops sharply at pH values <6.5 | LAP converted to product (W37VLplA [2]): 46% | emission maximum ([3]; Sun, et al.): 448 nm | excitation maximum ([3]; Sun, et al.): 386 nm | extinction coefficient ([3]; Sun, et al.): 36,700 M^−1 cm^−1 | pKa of 7-OH substituent [3]: 7.5 | Km (W37VLplA [4]): 56 ± 20 µM | kcat (W37VLplA [4]): 0.019 s⁻¹ | kcat (W37VLplA [4]; listed as HC4): 0.019 ± 0.004 s⁻¹

6,8-difluoro-7-hydroxycoumarin [Pacific Blue]
conversion to ligation product (W37TLplA): ~50%

Aminobenzyltetrazine Alexa Fluor 647 [Tz1-Alexa 647]
dye concentration giving specific signal [5]: 10 nM

O=C(O)CCCNC(=O)OC[C@H]1[C@@H]2CC/C=C/CC[C@@H]21 [TCO3, (rel-1R,8S,9R,4E)-Bicyclo[6.1.0]non-4-ene-9-ylmethyl-N-butyric acid carbamate]
Ligation efficiency (average, normalized product percentage), Trp37→Gly (Trp37→Gly LplA): 22.6 ± 2.0% | Ligation efficiency (average, normalized product percentage), Trp37→Ile (Trp37→Ile LplA): 6.0 ± 0.6% | Ligation efficiency (average, normalized product percentage), Trp37→Val [6]: 6.6 ± 0.6%

R-phycoerythrin
brightness relative to AlexaFluor 568 [7]: > 25 times

— US20150125904A1, “PROBE INCORPORATION MEDIATED BY ENZYMES” (Massachusetts Institute of Technology, priority 2012, published 2015)
